ChEMBL document CHEMBL1151502, “New base-altered adenosine analogues: Synthesis and affinity at adenosine A1 and A2A receptors” (Bioorg Med Chem Lett, 1997)

What was measured:
Adenosine receptor A2a = Adenosine receptor A2a (Rattus norvegicus, UniProt P30543); assay: Displacement of [3H]-CGS- 21680 from Adenosine A2 receptor of rat striatal membranes; format: cell membranes, Membrane
[1] = molecular target: Adenosine receptors; A1 & A2a (Rattus norvegicus) (UniProt P25099+P30543); assay: Selective ratio of A1 receptor to A2A receptor; format: protein assay
Adenosine receptor A1 = molecular target: T1, Adenosine receptor A1 (Rattus norvegicus, UniProt P25099); assay: Binding affinity at Adenosine A1 receptor in rat brain membranes by [3H](R)-PIA displacement.; format: cell membranes
T1 sequence (P25099 whole entry): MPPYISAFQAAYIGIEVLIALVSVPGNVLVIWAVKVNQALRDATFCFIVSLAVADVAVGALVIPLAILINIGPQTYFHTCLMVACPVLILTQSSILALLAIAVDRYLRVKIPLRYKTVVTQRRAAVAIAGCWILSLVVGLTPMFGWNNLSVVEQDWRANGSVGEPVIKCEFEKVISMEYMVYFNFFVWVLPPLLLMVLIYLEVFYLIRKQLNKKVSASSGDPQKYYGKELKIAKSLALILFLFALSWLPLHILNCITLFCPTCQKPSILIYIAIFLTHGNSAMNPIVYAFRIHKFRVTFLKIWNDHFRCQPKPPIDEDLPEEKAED

[2] = molecular target: Adenosine receptor A2a (Rattus norvegicus) (UniProt P30543); assay: Displacement of [3H]-CGS- 21680 from Adenosine A2 receptor in rat striatal membranes at 10e-4 M; format: cell membranes; conditions: Membrane
[3] = molecular target: Adenosine receptor A2a (Rattus norvegicus) (UniProt P30543); assay: Displacement of [3H]-CGS- 21680 from Adenosine A2 receptor in rat striatal membranes at 10e-5 M; format: cell membranes; conditions: Membrane
[4] = molecular target: Adenosine receptor A1 (Rattus norvegicus) (UniProt P25099); assay: Binding affinity for Adenosine A1 receptor

Chain of Adenosine receptor A2a (P30543 whole entry): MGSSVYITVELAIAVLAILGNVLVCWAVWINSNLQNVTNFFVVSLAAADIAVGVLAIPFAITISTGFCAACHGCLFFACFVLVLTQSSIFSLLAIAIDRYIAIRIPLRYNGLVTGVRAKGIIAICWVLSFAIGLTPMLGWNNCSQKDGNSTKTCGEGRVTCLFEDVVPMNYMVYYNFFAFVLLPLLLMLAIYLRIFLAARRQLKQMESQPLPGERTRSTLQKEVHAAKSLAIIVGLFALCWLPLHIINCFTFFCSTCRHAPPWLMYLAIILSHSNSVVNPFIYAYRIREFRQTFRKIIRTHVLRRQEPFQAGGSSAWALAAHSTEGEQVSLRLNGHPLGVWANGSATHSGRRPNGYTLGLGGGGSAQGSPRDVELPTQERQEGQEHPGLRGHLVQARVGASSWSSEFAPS
Chain of Adenosine receptor A2a (Rattus norvegicus) (P30543 whole entry): as above
Chain of Adenosine receptors; A1 & A2a (Rattus norvegicus) (P30543 whole entry, looked up, one chain of several): as the sequence (P30543 whole entry) above

SMILES	Ki (Adenosine receptor A2a) [nM]	Ki (Adenosine receptor A1) [nM]	also measured
OC[C@H]1O[C@@H](n2cnc3c(NN4CCC(Sc5ccccc5)CC4)nc(Cl)nc32)[C@H](O)[C@@H]1O	470		Ratio [1]: 522
OC[C@H]1O[C@@H](n2cnc3c(NN4CCCCC4)ncnc32)[C@H](O)[C@@H]1O		7.3	Displacement [2]: 29%
OC[C@H]1O[C@@H](n2cnc3c(NN4CCCCC4)nc(Cl)nc32)[C@H](O)[C@@H]1O	936	3.55	
OC[C@@H](Cc1ccccc1)Nc1nc(Cl)nc2c1ncn2C1O[C@H](CO)[C@@H](O)[C@H]1O (stereo not given in full)	10400	452	
CC(C)C[C@@H](CO)Nc1ncnc2c1ncn2C1O[C@H](CO)[C@@H](O)[C@H]1O (stereo not given in full)		139	Displacement [3]: < 10%
OC[C@H]1OC(n2cnc3c(NN4CCOCC4)nc(I)nc32)[C@H](O)[C@@H]1O (stereo not given in full)	19400	113	
OC[C@H]1O[C@@H](n2cnc3c(NN4CCOCC4)nc(Cl)nc32)[C@H](O)[C@@H]1O	1900	4.89	Ki [4]: 8 nM
OC[C@H](Cc1ccccc1)Nc1nc(Cl)nc2c1ncn2C1O[C@H](CO)[C@@H](O)[C@H]1O (stereo not given in full)	492	2.41	
OC[C@H]1OC(n2cnc3c(NN4CCOCC4)ncnc32)[C@H](O)[C@@H]1O (stereo not given in full)		15500	Displacement [2]: 36%
OC[C@H](Cc1ccccc1)Nc1nc(I)nc2c1ncn2C1O[C@H](CO)[C@@H](O)[C@H]1O (stereo not given in full)	1360	23	
CC(C)C[C@H](CO)Nc1ncnc2c1ncn2C1O[C@H](CO)[C@@H](O)[C@H]1O (stereo not given in full)	30300	224	
OC[C@H]1O[C@@H](n2cnc3c(NN4CCCC4)ncnc32)[C@H](O)[C@@H]1O (stereo in doubt) [listing 1 of 2 here]			Ratio [1]: 350
OC[C@H]1O[C@@H](n2cnc3c(NN4CCCC4)ncnc32)[C@H](O)[C@@H]1O (stereo in doubt) [listing 2 of 2 here]	2800	8	
CC(Nc1ncnc2c1ncn2[C@@H]1O[C@H](CO)[C@@H](O)[C@H]1O)[C@@H](O)c1ccccc1 (stereo not given in full)	390	2.7	Ratio [1]: 144
OC[C@H]1O[C@@H](n2cnc3c(NN4CCCC4)ncnc32)[C@H](O)[C@@H]1O (stereo in doubt; 3)	2800	8	
OC[C@@H](Cc1ccccc1)Nc1nc(I)nc2c1ncn2C1O[C@H](CO)[C@@H](O)[C@H]1O (stereo not given in full)		989	Displacement [2]: 49%
OC[C@H]1OC(n2cnc3c(NN4CCCCC4)nc(I)nc32)[C@H](O)[C@@H]1O (stereo not given in full)	8630	71	
